This note sets out measurements from patent US9370522B2, “Heterocyclic compounds for the inhibition of PASK” (BioEnergenix, LLC, priority 2009, dated 2016).

For one experiment, the target named is T1, hPASK (Full Length) (Homo sapiens, UniProt Q96RG2).
T1 construct: made in house; host or cells: insect cells
Kind of experiment: Biochemical Assay for hPASK Activity (Kinase-Glo Luminescent Kinase Assay), full length. As to conditions: purified hPASK from insect cells, MBP substrate. The procedure: (§1) The assay for purified hPASK activity utilizes the Kinase-Glo Luminescent Kinase Assay (Promega), which quantifies the amount of ATP remaining in solution following kinase reaction. The assay is carried out in a 96-well plate format and is performed by adding a volume of Kinase-Glo Reagent (Promega, catalog #V3771) equal to the volume of solution in the well of a completed kinase reaction. Kinase-Glo reagent contains Luciferase and its substrate. After addition to a kinase reaction it allows to measure luminescence. The amount of ATP left in solution at the time of Kinase-Glo Plus addition is directly proportional to the luminescence that is measured in each well, and inversely correlated with kinase activity.
(§2) Purified hPASK from insect cells (0.02 μg) is added to a 50 μL reaction mix containing 40 mM Hepes (pH 7.0), 100 mM KCl, 5 mM MgCl2, 1 mM DTT and 1 ug of MBP protein. Inhibitory compounds are then added and the mixture is incubated for 10 min at 25° C. before adding 5 μL of ATP (at desired concentration). The reaction is allowed to proceed at 25° C. for 1 hour before adding 50 μL of Kinase-Glo reagent. The luminescence is measured as soon as 10 minutes after Kinase-Glo reagent is added.

In the next experiment the target is T2, hPASK Kinase Domain (Homo sapiens, UniProt Q96RG2).
T2 construct: made in house; host or cells: insect cells
T2 sequence (Q96RG2 999-1251 limits assumed): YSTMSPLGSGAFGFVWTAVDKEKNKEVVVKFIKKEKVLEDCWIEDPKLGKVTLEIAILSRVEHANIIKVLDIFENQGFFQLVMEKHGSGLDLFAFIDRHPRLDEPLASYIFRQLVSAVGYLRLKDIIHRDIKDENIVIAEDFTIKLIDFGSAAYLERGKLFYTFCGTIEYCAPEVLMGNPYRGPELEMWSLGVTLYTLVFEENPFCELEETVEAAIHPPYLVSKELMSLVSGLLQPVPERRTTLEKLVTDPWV
Kind of experiment: Biochemical Assay for hPASK Activity (Kinase-Glo Luminescent Kinase Assay), kinase domain. The procedure:
as §1, §2

The next experiment concerns the target T3, PASK (UniProt #Q96RG2; human recombinant N-terminal GST tagged construct, residues 879-1323) (Homo sapiens, UniProt Q96RG2).
T3 construct: N-terminal GST tagged construct, residues 879-1323; GST (N); made in house; host or cells: insect cells
Kind of experiment: 33P-ATP radiometric PASK kinase assay (P81 phosphocellulose, scintillation counting). As to conditions: Table 2, Myelin Basic Protein 20 μM, 120 min room temperature, average of all trials, read-out: IC50 Kinase Domain. The class given is biochemical. How it is done: Purified PASK (UniProt #Q96RG2; human recombinant N-terminal GST tagged construct, residues 879-1323) from insect cells (final concentration 5 nM) is added to freshly prepared Base Reaction Buffer containing 20 mM Hepes (pH 7.5), 10 mM MgCl2, 1 mM EGTA, 0.02% Brij35, 0.02 mg/ml BSA, 0.1 mM Na3VO4, 2 mM DTT, 1% DMSO and Myelin Basic Protein (20 μM final). Test compounds in DMSO are then added and the mixture, followed by delivery of ^33P-ATP (specific activity 0.01 μCi/μl final) to initiate the reaction. The kinase reaction is incubated for 120 min at room temperature. The entire reaction mixture is washed through onto a P81 Phosphocellulose paper and washed three times for 10 minutes in 75 mM phosphoric acid and once in methanol prior to drying and scintillation counting. When the assay was repeated for a given compound, the activity data is based on the average of all trials.

Experiment [1] has as its target T4, PASK (Invitrogen) Kinase Domain (Homo sapiens, UniProt Q96RG2).
T4 construct: IC50 Kinase Domain; purchased Invitrogen
Kind of experiment: PASK TR-FRET assay (Ulight-peptide, Eu chelate antibody). In kind it is biochemical. As to conditions: TR-FRET 665 nm/615 nm, 2 hours at 25° C. From the text: The aim of the FRET assay is to determine the inhibition potential of test compounds on targeted kinase. This assay platform provides a homogenous screening method for measuring kinase activity by quantitating the amount of phospho-substrate in solution following a kinase reaction.
In the presence of kinase and ATP, the Ulight-peptide is phosphorylated and captured by an anti-phospho-substrate antibody, which brings the Eu chelate donor and Ulight acceptor dyes into close proximity. Upon excitation at 340 nm, the Eu chelate transfers its energy to the Ulight dye, resulting in a fluorescent light emission at 665 nm.
Titration of Kinase at 1 mM ATP was achieved via the following protocol. After making serial three-fold dilutions of PASK (Invitrogen) in reaction buffer across the plate; 5 μl of kinase dilution and 5 μl substrate/ATP mix were added to the wells of the white Optiplate-384 (PerkinElmer). The contents of the plate were and incubated at RT for 1 h. The reaction was stopped by adding 5 μl of stop solution to each test well followed by mixing and incubation at RT for 10 minutes. 5 μl of detection mix (detection antibody diluted in detection buffer) was added; the contents of the plate were mixed and then incubated in the dark for 1 hour at RT. The signal was recorded at TR-FRET mode (665 nm/615 nm). The results were graphed to calculate the EC50.
Titration of ATP at the EC50 Concentration of Kinase to determine ATP Km,app. was performed using the following method. After making serial dilutions of ATP (Invitrogen), 5 μl of ATP dilution and 5 μl substrate/kinase mix were added to the wells of the white Optiplate-384 (PerkinElmer). The contents of the plate were and incubated at RT for 1 h. The reaction was stopped by adding 5 μl of stop solution to each test well followed by mixing and incubation at RT for 10 minutes. 5 μl of detection mix (detection antibody diluted in detection buffer) was added; the contents of the plate were mixed and then incubated in the dark for 1 hour at RT. The signal was recorded at TR-FRET mode (665 nm/615 nm). The results were graphed to calculate the EC50 as the ATP Km,app.
Compound screening was done via the following method. 10 mM stock solution of test compound in DMSO was prepared by dissolving test compound in DMSO at RT for 1 hour, and then sonicating at 100% output for 8 minutes. If compound is not soluble under this condition, it was diluted to 3 mM. Kinase reaction buffer was prepared containing 10 mM MgCl2, 50 mM HEPES, 1 mM EGTA, 0.01% TWEEN-20, 2 mM DTT. […] The signal was recorded at TR-FRET mode (665 nm/615 nm).

Setting [2] is: Table 1, second part (Examples 33-59).

T4 sequence (Q96RG2 999-1251 limits assumed): as above
T1 sequence (Q96RG2 whole entry): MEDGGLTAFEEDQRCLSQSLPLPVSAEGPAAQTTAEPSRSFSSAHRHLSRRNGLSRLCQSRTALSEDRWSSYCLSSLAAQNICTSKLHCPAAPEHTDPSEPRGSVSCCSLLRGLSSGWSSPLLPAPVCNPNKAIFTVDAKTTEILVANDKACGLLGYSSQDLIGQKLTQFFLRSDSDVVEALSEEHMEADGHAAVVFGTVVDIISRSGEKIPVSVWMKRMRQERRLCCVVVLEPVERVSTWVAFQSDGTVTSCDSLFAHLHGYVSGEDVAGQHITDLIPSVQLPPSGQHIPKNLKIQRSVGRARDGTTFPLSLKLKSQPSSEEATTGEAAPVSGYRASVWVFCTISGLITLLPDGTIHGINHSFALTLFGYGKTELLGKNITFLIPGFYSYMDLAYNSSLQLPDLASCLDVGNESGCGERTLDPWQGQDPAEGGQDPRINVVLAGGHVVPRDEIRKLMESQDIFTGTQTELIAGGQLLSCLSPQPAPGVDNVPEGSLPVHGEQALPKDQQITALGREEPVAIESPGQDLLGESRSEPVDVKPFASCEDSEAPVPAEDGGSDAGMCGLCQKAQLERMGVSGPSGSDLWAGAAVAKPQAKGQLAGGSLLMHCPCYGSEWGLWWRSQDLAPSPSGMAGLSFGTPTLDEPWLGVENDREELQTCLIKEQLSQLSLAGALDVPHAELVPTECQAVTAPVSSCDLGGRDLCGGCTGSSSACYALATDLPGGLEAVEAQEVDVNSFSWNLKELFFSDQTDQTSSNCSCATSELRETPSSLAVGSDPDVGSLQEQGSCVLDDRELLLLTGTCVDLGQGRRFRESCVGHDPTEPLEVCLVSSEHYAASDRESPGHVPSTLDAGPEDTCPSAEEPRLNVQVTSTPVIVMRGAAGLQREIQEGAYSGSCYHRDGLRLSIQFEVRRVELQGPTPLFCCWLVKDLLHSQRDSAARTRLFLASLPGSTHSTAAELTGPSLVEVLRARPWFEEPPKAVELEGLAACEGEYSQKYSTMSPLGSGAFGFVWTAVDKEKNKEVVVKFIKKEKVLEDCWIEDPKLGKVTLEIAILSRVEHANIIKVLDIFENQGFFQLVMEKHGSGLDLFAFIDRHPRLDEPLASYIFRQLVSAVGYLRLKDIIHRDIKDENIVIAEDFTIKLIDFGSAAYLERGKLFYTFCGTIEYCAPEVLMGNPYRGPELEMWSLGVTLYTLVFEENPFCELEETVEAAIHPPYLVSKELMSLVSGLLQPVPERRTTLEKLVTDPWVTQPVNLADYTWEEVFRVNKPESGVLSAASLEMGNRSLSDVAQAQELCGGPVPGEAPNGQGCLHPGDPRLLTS
T3 sequence (Q96RG2 879-1323, stated change not applied): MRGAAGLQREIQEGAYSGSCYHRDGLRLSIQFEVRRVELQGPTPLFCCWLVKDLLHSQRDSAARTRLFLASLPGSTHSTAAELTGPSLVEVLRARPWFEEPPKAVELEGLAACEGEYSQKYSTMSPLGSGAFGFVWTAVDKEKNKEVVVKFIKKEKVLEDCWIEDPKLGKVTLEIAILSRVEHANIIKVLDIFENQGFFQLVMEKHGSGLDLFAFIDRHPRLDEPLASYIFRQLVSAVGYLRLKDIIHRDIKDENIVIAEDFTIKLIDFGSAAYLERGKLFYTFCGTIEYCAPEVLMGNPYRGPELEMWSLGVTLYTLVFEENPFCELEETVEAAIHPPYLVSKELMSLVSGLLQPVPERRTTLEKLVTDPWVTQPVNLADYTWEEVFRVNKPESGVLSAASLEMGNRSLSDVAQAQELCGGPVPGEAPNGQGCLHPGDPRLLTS

As for `O=C(O)c1ccc2nc(-c3cccc(O)c3)c(-c3cccc(O)c3)nc2c1` [Example 1, 2,3-Di-(3-hydroxyphenyl)quinoxaline-6-carboxylic acid], the IC50 against hPASK (Full Length) is at most 10 µM; on hPASK Kinase Domain (Table 1, first part), at most 10 µM.

As for `O=C(O)c1ccc2nc(-c3ccccc3O)c(-c3ccccc3O)nc2c1` [Example 2, 2,3-Di-(2-hydroxyphenyl)quinoxaline-6-carboxylic acid], the 50% inhibitory concentration (IC50) was at most 10 µM against hPASK (Full Length) and at most 10 µM at hPASK Kinase Domain (Table 1, first part).

As to `Cc1nc2cc(C(=O)O)c(O)cc2nc1-c1ccccc1` [Example 3, 7-Hydroxy-2-phenyl-3-methylquinoxaline-6-carboxylic acid], the IC50 is at least 10 µM against hPASK (Full Length) and at least 10 µM against hPASK Kinase Domain (Table 1, first part).

With `COc1ccc(-c2nc3ccc(C(=O)O)cc3nc2-c2ccc(OC)c(OC)c2)cc1OC` [Example 4, 2,3-Di-(3,4-dimethoxyphenyl)quinoxaline-6-carboxylic acid], the IC50 on hPASK (Full Length) is at least 10 µM; against hPASK Kinase Domain (Table 1, first part) it was at least 10 µM.

Regarding `O=C(O)c1ccc2nc(-c3ccc(F)cc3)c(-c3ccc(F)cc3)nc2c1` [Example 5, 2,3-Di-(4-fluorophenyl)quinoxaline-6-carboxylic acid], the IC50 at hPASK (Full Length) is at most 10 µM; on hPASK Kinase Domain (Table 1, first part), at least 10 µM.

As to `Cc1ccc(-c2nc3ccc(C(=O)O)cc3nc2-c2ccc(C)cc2)cc1` [Example 7, 2,3-Di-(4-methylphenyl)quinoxaline-6-carboxylic acid], the 50% inhibitory concentration (IC50) against hPASK (Full Length) was at most 10 µM; against hPASK Kinase Domain (Table 1, first part), at least 10 µM.

As to `O=C(O)c1ccc2nc(-c3ccccc3)c(-c3ccccc3)nc2c1` [Example 8, 2,3-Diphenylquinoxaline-6-carboxylic acid], the concentration for half-maximal inhibition (IC50) is at most 10 µM on hPASK (Full Length) and at most 10 µM at hPASK Kinase Domain (Table 1, first part).

`O=C(O)c1ccc2nc(-c3ccco3)c(-c3ccco3)nc2c1` [Example 9, 2,3-Di-(2-furyl)quinoxaline-6-carboxylic acid]: the IC50 was at most 10 µM at hPASK (Full Length) and at most 10 µM at hPASK Kinase Domain (Table 1, first part).

For the compound `O=C(O)c1cc2nc(-c3ccc4c(c3)OCO4)c(-c3ccc4c(c3)OCO4)nc2cc1O` [Example 10, 2,3-Di-(3,4-methylenedioxyphenyl)quinoxaline-7-hydroxy-6-carboxylic acid], the half-maximal inhibitory concentration (IC50) against hPASK (Full Length) was at most 10 µM; against hPASK Kinase Domain (Table 1, first part), at most 10 µM.

Consider `CCOc1ccc(-c2nc3ccc(C(=O)O)cc3nc2-c2ccc(OCC)cc2)cc1` [Example 11, 2,3-Di-(4-ethoxyphenyl)quinoxaline-6-carboxylic acid], for which the 50% inhibitory concentration (IC50) against hPASK (Full Length) is at least 10 µM; on hPASK Kinase Domain (Table 1, first part) it was at least 10 µM.

For `CC(C)(C)c1ccc(-c2nc3cc(C(=O)O)ccc3nc2-c2ccccc2)cc1` [Example 33, 3-(4-tert-Butylphenyl)-2-phenylquinoxaline-6-carboxylic acid], the half-maximal inhibitory concentration (IC50) (against hPASK Kinase Domain (setting [2]); on PASK; in experiment [1]) was at most 10 µM throughout.

With `CC(C)S(=O)(=O)Nc1ccc(-c2nc3cc(C(=O)O)ccc3nc2-c2ccccc2)cc1` [Example 52, 3-(4-(Isopropylsulfonamido)phenyl)-2-phenylquinoxaline-6-carboxylic acid], the IC50 (at hPASK Kinase Domain (setting [2]); in experiment [1]) was at most 10 µM each time.

For `CNS(=O)(=O)c1ccc2nc(-c3ccc(OC)cc3)c(-c3ccc(OC)cc3)nc2c1` [Example 54, 2,3-Bis(4-methoxyphenyl)-N-methylquinoxaline-6-sulfonamide], the IC50 at hPASK Kinase Domain (setting [2]) is at least 10 µM.

In the case of `COc1ccc(-c2nc3ccc(S(=O)(=O)N4CCOCC4)cc3nc2-c2ccc(OC)cc2)cc1` [Example 55, 2,3-Bis(4-methoxyphenyl)-6-(morpholinosulfonyl)quinoxaline], the IC50 at hPASK Kinase Domain (setting [2]) was at most 10 µM.

Compound `COc1ccc(-c2nc3ccc(/C=C/C(=O)O)cc3nc2-c2ccc(OC)cc2)cc1` [Example 56, (E)-3-(2,3-bis(4-methoxyphenyl)quinoxalin-6-yl)acrylic acid] displayed an IC50 on hPASK Kinase Domain (setting [2]) of at least 10 µM.

Turning to `COc1ccc(-c2nc3cccc(C(=O)O)c3nc2-c2ccc(OC)cc2)cc1` [Example 58, 2,3-Bis(4-methoxyphenyl)quinoxaline-5-carboxylic acid], the 50% inhibitory concentration (IC50) against hPASK Kinase Domain (setting [2]) is at most 10 µM.

In turn, `CCc1ccc(-c2nc3ccc(C(=O)NOC)cc3nc2-c2ccc(CC)cc2)cc1` [Example 59, 2,3-Bis(4-ethylphenyl)-N-methoxyquinoxaline-6-carboxamide] displayed an IC50 at hPASK Kinase Domain (setting [2]) of at most 10 µM.

In experiment [1], `COc1ccc(-c2nc3cc(C(=O)O)ccc3cc2-c2ccccc2)cc1` [Example 60, 2-(4-Methoxyphenyl)-3-phenylquinoline-7-carboxylic acid] showed a concentration for half-maximal inhibition (IC50) of at most 10 µM.

`COc1ccc(-c2cc3cc(C(=O)O)ccc3nc2-c2ccc(OC)cc2)cc1` [Example 61, 2,3-Bis(4-methoxyphenyl)quinoline-6-carboxylic acid] displayed a half-inhibitory concentration (IC50) in experiment [1] of at most 10 µM.
